Test results from US20070021303A1, “Safening method” (priority 2004, published 2007).

Columns and labels:
onion [1] = assay: Seed treatment of onion with safener (encrustment with rotostat), early post-emergence application of ioxynil; format: in vivo, Allium cepa; conditions: var. Brioso
Procedure: (§1) Onion (Allium cepa var. Brioso) seeds were encrusted in a commercial seed coating machine. Approximately 1 ml of binder was added. Subsequently, a small amount of encrustment powder (X % Naphthalic Anhydride+[100−X]% inert filler material) was added. Binder was added again and this procedure was repeated until all encrustment powder was stuck to the seeds. Seeds were dried subsequently.
(§2) The differently-treated seeds were sown in trays. After 9 days, the seedlings were sprayed with 1.0 g/l ioxynil using an atomizer. A dosage of 3 ml per tray was applied, equalizing 300 g.a.i./hectare. At 3 days after spraying the number of collapsed seedlings was counted.

leek [2] = assay: Oxabetrinil safening ioxynil damage in leek (seed treatment); format: in vivo, allium porrum
onion [3] = assay: Post-emergence application of herbicide and safener by the tank mix method, onion; format: in vivo
Description: Seeds of onion plants were sown in sandy loam soil in round plastic pots of a diameter of 7 cm and covered with a layer of sandy loam of a thickness of about 0.2 cm. The pots were placed in a greenhouse under favorable growth conditions for until the plants had reached the 2-leaves growth stage. Then, a herbicide or—in a parallel experiment—a tank-mix of the herbicide and a safener (using same basic formulation in each case) was applied to the green parts of the plants and the uncovered part of the soil surface with a spray bar using a water application rate of 300 liters per hectare.
(§3) The pots were placed in a greenhouse under favorable growth conditions. Visual scoring of the herbicidal action was carried out 21 or 40 days after treatment with the herbicide or the tank-mix, respectively. Evaluation was carried out on a percentage basis by comparison with untreated control plants (0%=no noticeable effect compared with the untreated plant, 100%=treated plant dies).

leek [4] = assay: Post-emergence application of herbicide and safener by the tank mix method, leek; format: in vivo
Description: Seeds of leek plants were sown in sandy loam soil in round plastic pots of a diameter of 7 cm and covered with a layer of sandy loam of a thickness of about 0.2 cm. The pots were placed in a greenhouse under favorable growth conditions for until the plants had reached the 2-leaves growth stage. Then, a herbicide or—in a parallel experiment—a tank-mix of the herbicide and a safener (using same basic formulation in each case) was applied to the green parts of the plants and the uncovered part of the soil surface with a spray bar using a water application rate of 300 liters per hectare.
as §3

onion [5] = assay: Benoxacor safening bromoxynil damage in onion (seed treatment); format: in vivo, Allium cepa; conditions: variety Diamante; safener 0 g a.i./kg seed; bromoxynil-octanoate (Buctril) 25 g a.i./ha 10 days after seeding
Procedure: as §1
The differently-treated seeds were sown in trays. After 9 days, the seedlings were sprayed with 1.0 g/l ioxynil using an atomizer. A dosage of 3 ml per tray was applied, equalizing 300 g.a.i./hectare. […]
Onion (Allium cepa var. Diamante) were treated with safener, sown, treated with a herbicide and evaluated as described in Example 5 with the difference that the herbicide is bromoxynil-octanoate and the safener is benoxacor.

leek [6] = assay: Seed treatment of leek with safener (seed coating with rotostat system), field, early post-emergence application of ioxynil; format: in vivo, allium porrum
Procedure: (§4) Leek (allium porrum var. Shelton) seeds were coated in a commercial seed coating machine. Gradually, binder solution with X g of mefenpyr-diethyl was added. Seeds were dried subsequently.
The differently-treated seeds were sown in the field using commercial sowing equipment. After 25 days, the seedlings were sprayed with a standard formulation of ioxynil (®Totril) at an application rate of 112 g a.i./ha ioxynil. At 15 days after spraying the number of collapsed seedlings was counted.

leek [7] = assay: Mefenpyr safening Prometryn damage in leek (seed treatment); format: in vivo, allium porrum; conditions: prometryn (Gesagard) 750 g a.i./ha 10 days after seeding
Procedure: as §4
The differently-treated seeds were sown in the field using commercial sowing equipment. […]
Leek seeds (allium porrum, var. Shelton or Parton) were treated with safener, sown, treated with a herbicide and evaluated as described in Example 6 with the difference that the herbicide is prometryn.

leek [8] = assay: Seed treatment of leek with safener (encrustment method), early post-emergence application of ioxynil; format: in vivo, allium porrum
Procedure: Leek (allium porrum var. Parton) seeds were put in an erlenmeyer flask with a spinning stirring magnet. A droplet of binder (glue) was added and distributed evenly amongst the seeds. Subsequently, a small amount of encrustment powder (X % mefenpyr-diethyl+[100−X]% inert filler material) was added and mixed through the seeds using the stirring magnet. A droplet of binder was added again and this procedure was repeated until all encrustment powder was stuck to the seeds. Seeds were dried subsequently.
The differently-treated seeds were sown in trays. After 9 days, the seedlings were sprayed with 4.0 g/l ioxynil using an atomizer. A dosage of 3 ml per tray was applied, equalizing 1200 g.a.i./hectare. At 6 days after spraying the number of collapsed seedlings was counted.

onion [9] = assay: Mefenpyr safening oxyfluorfen damage in onion (seed treatment); format: in vivo, Allium cepa; conditions: variety Diamante, oxyfluorfen (Goal) 7.5 g a.i./ha 9 days after seeding
Procedure: as §1, §2
Onion (Allium cepa var. Diamante) were treated with safener, sown, treated with a herbicide and evaluated as described in Example 5 with the difference that the herbicide is oxyfluorfen and the safener is mefenpyr-diethyl.

leek [10] = assay: Fluxofenim safening ioxynil damage in leek (seed treatment); format: in vivo, allium porrum

`O=C1OC(=O)c2cccc3cccc1c23` [naphthalic anhydride, 1,8-naphthalenedicarboxylic anhydride] was tested, and the “damage (collapsed seedlings) versus control-treated seedlings” value (onion [1]; naphthalic anhydride seed treatment, then ioxynil 300 g a.i./ha, after 3 days) was “significantly less damage”.

For `N#C/C(=N\OCC1OCCO1)c1ccccc1` [oxabetrinil, (Z)-1,3-dioxolan-2-ylmethoxyimino(phenyl)-acetonitrile], the “Damage to seedling (% collapsed) at 7 DAT” value (leek [2]; variety Shelton, safener oxabetrinil 1 g a.i./kg seed, ioxynil (Totril) 112 g a.i./ha 10 days after seeding) was 25%, the “Damage to seedling (% collapsed) at 7 DAT” value (leek [2]; variety Shelton, safener oxabetrinil 2 g a.i./kg seed, ioxynil (Totril) 112 g a.i./ha 10 days after seeding) was 27% and the “Damage to seedling (% collapsed) at 7 DAT” value (leek [2]; variety Shelton, safener oxabetrinil 4 g a.i./kg seed, ioxynil (Totril) 112 g a.i./ha 10 days after seeding) was 13%.

With `CON(C)C(=O)Nc1ccc(Cl)c(Cl)c1` [H2, linuron] the “Damage to onion (in %) variety Blanco Duro” value (onion [3]; variety Blanco Duro, 250 g a.i./ha, scoring 40 DAT) was 100%, the “Damage to onion (in %) variety Brioso” value (onion [3]; variety Brioso, 250 g a.i./ha, scoring 40 DAT) was 30% and the “Damage to leek (in %) variety Harston” value (leek [4]; variety Harston, 250 g a.i./ha, scoring 40 DAT) was 20%. For the same compound, the “Damage to leek (in %) variety Kenton” value (leek [4]; variety Kenton, 250 g a.i./ha, scoring 40 DAT) was 20%.

For `CCCCCCCC(=O)Oc1c(Br)cc(C#N)cc1Br` [H7, bromoxynil-octanoate], the “Damage to seedling (% collapsed) at 5 DAT” value (onion [5]) was 19%.

In the case of `CCOC(=O)C1=NN(c2ccc(Cl)cc2Cl)C(C)(C(=O)OCC)C1` (centres unmarked) [mefenpyr-diethyl, ethyl 1-(2,4-dichlorophenyl)-5-(ethoxycarbonyl)-5-methyl-2-pyrazoline-3-carboxylate], the “Damage to leek (in %) 15 DAT” value (leek [6]; var. Shelton, field, ST3 = seed treatment 2.0 g a.i./kg mefenpyr-diethyl, ioxynil 112 g a.i./ha 25 days after seeding, 15 DAT) was “significantly reduced the amount of damage”, the “Damage to seedling (% collapsed) at 6 DAT” value (leek [7]; variety Parton, safener mefenpyr-diethyl 1 g a.i./kg seed) was 3% and the “Damage to seedling (% collapsed) at 6 DAT” value (leek [7]; variety Parton, safener mefenpyr-diethyl 2 g a.i./kg seed) was 1%. The “Damage to seedling (% collapsed) at 6 DAT” value (leek [7]; variety Shelton, safener mefenpyr-diethyl 1 g a.i./kg seed) was 2%, the “Damage to seedling (% collapsed) at 6 DAT” value (leek [7]; variety Shelton, safener mefenpyr-diethyl 2 g a.i./kg seed) was 1% and the “damage (collapsed seedlings) versus control-treated seedlings” value (leek [8]; var. Parton, mefenpyr seed treatment, then ioxynil 1200 g a.i./ha, 6 days after application) was “significantly less damage”. For the same compound, the “Damage to seedling (% collapsed) at 5 DAT” value (onion [9]; safener mefenpyr-diethyl 2 g a.i./kg seed) was 64%, the “Damage to seedling (% collapsed) at 5 DAT” value (onion [9]; safener mefenpyr-diethyl 4 g a.i./kg seed) was 49% and the “Damage to seedling (% collapsed) at 5 DAT” value (onion [9]; safener mefenpyr-diethyl 8 g a.i./kg seed) was 39%.

In the case of `COc1cc(OC)nc(NC(=O)NS(=O)(=O)c2cc(NC=O)ccc2C(=O)N(C)C)n1` [H4, N,N-dimethyl-2-[3-(4,6-dimethoxypyrimidin-2-yl)ureidosulfonyl]-4-formylaminobenzamide], the “Damage to onion (in %) variety Blanco Duro” value (onion [3]; in vivo) was 10%, the “Damage to onion (in %) variety Brioso” value (onion [3]; in vivo) was 30% and the “Damage to leek (in %) variety Harston” value (leek [4]; in vivo) was 50%. For the same compound, the “Damage to leek (in %) variety Kenton” value (leek [4]; in vivo) was 50%.

In the case of `N#Cc1cc(I)c(O)c(I)c1` [H1, 4-hydroxy-3,5-di-iodobenzonitrile], the “Damage to leek (in %) 15 DAT” value (leek [6]; in vivo) was 6%, the “Damage to seedling (% collapsed) at 7 DAT” value (leek [2]; in vivo) was 45% and the “Damage to leek (in %) 6 DAT” value (leek [8]; in vivo) was 52%. The “Damage to onion (in %) variety Blanco Duro” value (onion [3]; in vivo) was 55%, the “Damage to onion (in %) variety Brioso” value (onion [3]; in vivo) was 45% and the “Damage to seedling (% collapsed) at 5 DAT” value (leek [10]; in vivo) was 16%. The “Damage to onion (in %) 3 DAT” value (onion [1]; no safener, ioxynil 300 g a.i./ha sprayed 9 days after seeding, collapsed seedlings 3 DAT) was 57%, the “Damage to leek (in %) variety Harston” value (leek [4]; in vivo) was 40% and the “Damage to leek (in %) variety Kenton” value (leek [4]; in vivo) was 55%.

In the case of `FC(F)(F)C(=NOCC1OCCO1)c1ccc(Cl)cc1` [fluxofenim, 1-(4-chlorophenyl)-2,2,2-trifluoro-1-ethanone O-(1,3-dioxolan-2-ylmethyl)oxime], the “Damage to seedling (% collapsed) at 5 DAT” value (leek [10]; variety Shelton, safener fluxofenim 1 g a.i./kg seed, ioxynil (Totril) 112 g a.i./ha 10 days after seeding) was 10% and the “Damage to seedling (% collapsed) at 5 DAT” value (leek [10]; variety Shelton, safener fluxofenim 2 g a.i./kg seed, ioxynil (Totril) 112 g a.i./ha 10 days after seeding) was 6%.

With `COC(=O)c1ccc(CNS(C)(=O)=O)cc1S(=O)(=O)NC(=O)Nc1nc(OC)cc(OC)n1` [H3, methyl 2-[3-(4,6-dimethoxypyrimidin-2-yl)ureidosulfonyl]-4-methanesulfonylaminomethylbenzoate] the “Damage to onion (in %) variety Blanco Duro” value (onion [3]; in vivo) was 70%, the “Damage to onion (in %) variety Brioso” value (onion [3]; in vivo) was 50% and the “Damage to leek (in %) variety Harston” value (leek [4]; variety Harston, 50 g a.i./ha, scoring 40 DAT) was 50%. The “Damage to leek (in %) variety Kenton” value (leek [4]; variety Kenton, 50 g a.i./ha, scoring 40 DAT) was 45%.

For `CCOc1cc(Oc2ccc(C(F)(F)F)cc2Cl)ccc1[N+](=O)[O-]` [H6, oxyfluorfen], the “Damage to seedling (% collapsed) at 5 DAT” value (onion [9]; safener 0 g a.i./kg seed) was 83%.
